Test results: patent publication US20220016243A1, “METHODS FOR TREATMENT OF CANCER WITH AN ANTI-TIGIT ANTAGONIST ANTIBODY” (Genentech, Inc., priority 2020, published 2022)
Read-outs that look alike come from different tables or passages of the source.

Columns and labels:
[1] = test system: patients with advanced or metastatic HCC; settings: cited from earlier work
[2] = test system: patients with metastatic bladder; settings: 8 of 17 patients at the recommended Phase II dose; prior CPI treatment; 95% CI: 23, 72.2; cited from earlier work
[3] = test system: patients with mUC who had progressed on platinum-based therapy and checkpoint inhibitor therapy; settings: cited from earlier work
[4] = test system: chemotherapy-naive patients with locally advanced unresectable or metastatic PD-L1-selected NSCLC; settings: cutoff 30 Jun. 2019
[5] = Internal safety review of lung cancer clinical trials (paclitaxel); format: in vivo, human; settings: patients from Asian countries compared with those from non-Asian countries
Protocol: Patients of Asian race/ethnicity have a lower starting dose of paclitaxel at 175 mg/m2 IV over 3 hours. […] As used in this study, Asian race/ethnicity refers to a panethnic/racial group that includes diverse populations who either live or have ancestral origins in East Asia, Southeast Asia, or South Asia. The applicability of such term in a particular patient is at the discretion of the treating investigator and should be based on the patient's clinical characteristics and country of origin.

[6] = cited from earlier work
[7] = human, in vivo; cited from earlier work

**Q.** Which results are given for `CNC(=O)c1cc(Oc2ccc(NC(=O)Nc3ccc(Cl)c(C(F)(F)F)c3)cc2)ccn1` [sorafenib]?
**A.** median PFS ([1]; Independent Review Facility-assessed per RECIST v1.1): 4.27 months; median OS ([1]; in vivo): 13.24 months

**Q.** Which “patients who obtained a PR” value [2] does the source give for enfortumab vedotin here?
**A.** The value was 47%.

**Q.** Which results are given for sacituzumab govitecan?
**A.** ORR ([3]; 35 patients): 29%; ORR ([3]; patients with liver metastases): 25.0%

**Q.** With “placebo and atezolizumab: control arm of Study GO40290: placebo in combination with atezolizumab” as the molecule, how does the all-grade adverse events ([4]; 135 safety-evaluable patients, tiragolumab 600 mg every 3 weeks) read?
**A.** The all-grade adverse events was 95.6%.

**Q.** And the ORR ([4]; ITT population)?
**A.** Its ORR is 16.2%.

**Q.** What about the “investigator-assessed PFS” value ([4]; ITT population) of the same molecule?
**A.** Its value is 3.6 months.

**Q.** And the “AEs leading to treatment discontinuation” value [4]?
**A.** The value was 10.3%.

**Q.** And the “Grade ≥3 AEs” value [4]?
**A.** Its value is 44.1%.

**Q.** And the “adverse events of special interest” value [4]?
**A.** Its value is 32.4%.

**Q.** What about the “serious AEs” value [4] of the same molecule?
**A.** The value was 35.3%.

**Q.** Which “incidence of hematologic toxicities” value [5] does the source give for `CC(=O)O[C@H]1C(=O)[C@@]2(C)[C@H]([C@H](OC(=O)c3ccccc3)[C@]3(O)C[C@H](OC(=O)[C@H](O)[C@@H](NC(=O)c4ccccc4)c4ccccc4)C(C)=C1C3(C)C)[C@]1(OC(C)=O)CO[C@@H]1C[C@@H]2O` [paclitaxel] here?
**A.** The value was “higher overall incidence of hematologic toxicities”.

**Q.** With `[NH2][Pt]1([NH2])[O]C(=O)C2(CCC2)C(=O)[O]1` [carboplatin, platinum, diammine[I,I-cyclobutanedicarboxylato(2-)-0,0′]-, (SP-4-2)] as the molecule, how does the “pH of a 1% solution” value ([6]; 1% solution) read?
**A.** Its value is 5 to 7.

**Q.** And the “solubility in ethanol, acetone, and dimethylacetamide” value ([6]; ethanol, acetone, dimethylacetamide)?
**A.** The value was “virtually insoluble”.

**Q.** What about the solubility in water ([6]; water) of the same molecule?
**A.** Its solubility in water is “approximately 14 mg/mL”.

**Q.** For `Nc1ccn([C@@H]2O[C@H](CO)[C@@H](O)C2(F)F)c(=O)n1` [gemcitabine], which “most common adverse events” value [7] is on record?
**A.** The value was “nausea/vomiting, anemia, hepatic transaminitis, neutropenia, increased ALP, proteinuria, fever, hematuria, rash, thrombocytopenia, dyspnea, and peripheral edema”.
